Reference: patent EP3421483A1, “NOVEL STEROIDAL 17-BETA HETEROARYL COMPOUNDS AS INHIBITORS OF AKR1C3” (Bayer Pharma Aktiengesellschaft, priority 2017, dated 2019)
Values joined by “and” are separate entries in the source; they are usually repeats but may differ in a detail not shown here. Equal values may be shown once.

biological target: T1, recombinant human AKR1C3 (aldo-keto reductase family 1 member C3) (Homo sapiens, UniProt P42330); assay: AKR1C3 enzyme inhibition assay (fluorescence; NADPH-dependent reduction of coumberone to coumberol); assay type: biochemical; conditions: not given
T1 construct: GST (cleaved yes); made in house; host or cells: E. coli
T1 sequence (P42330 1-323): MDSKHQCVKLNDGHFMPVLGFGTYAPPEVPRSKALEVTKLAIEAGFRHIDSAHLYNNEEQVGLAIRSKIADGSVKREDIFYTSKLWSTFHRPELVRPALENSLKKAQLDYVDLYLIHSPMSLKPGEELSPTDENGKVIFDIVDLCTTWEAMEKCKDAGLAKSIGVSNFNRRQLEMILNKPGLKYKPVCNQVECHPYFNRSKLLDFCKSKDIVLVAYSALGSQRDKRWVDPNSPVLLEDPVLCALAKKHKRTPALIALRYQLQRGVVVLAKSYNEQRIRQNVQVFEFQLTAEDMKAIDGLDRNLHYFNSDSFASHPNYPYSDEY
Method: The AKR1C3-inhibitory action of the substances of this invention was measured in the AKR1C3 assay described in the paragraphs which follow. Essentially, the enzyme activity is measured by quantifying the coumberol formed from coumberone ([…]., and […]. AM. CHEM. SOC. 130, 14123-14128 (2008) […]., Bauman, D.R., Penning, T.M., and […]., Proc. Natl. Acad. Sci. USA 103, 13304 - 13309 (2006)). In this assay, the increase in the highly fluorescent coumberol can be determined by NADPH (nicotinamide adenine dinucleotide phosphate)-dependent reduction of the nonfluorescent coumberone by AKR1C3. […] NM_003739). This was expressed as the GST (glutathione S-transferase) fusion protein in E. coli and purified by means of glutathione-Sepharose affinity chromatography. The GST was removed by thrombin digestion with subsequent size exclusion chromatography (Dufort, I., Rheault, P., Huang, XF., Soucy, P., and Luu-The, V., Endocrinology 140, 568-574 (1999)). […] The concentration of the AKR1C3 was matched to the respective activity of the enzyme preparation and set such that the assay worked within the linear range. Typical concentrations were in the region of 1 nM. The reaction was stopped by adding 5 μl of a stop solution consisting of the inhibitor EM-1404 [F. Labrie et al. US Patent 6,541,463, 2003] (2 μM → final concentration in assay volume […] is 1 μM). Subsequently, the fluorescence of coumberol was measured at 520 nm (excitation at 380 nm) with a suitable measuring instrument (Pherastar from BMG Labtechnologies). […] As described, the pharmacological substances claimed were tested for their inhibitory effect on the AKR1C3 enzyme (see Table 3). […] Table 3: Inhibition of AKR1C3 by the inventive compounds (for some of the compounds, the values for two experimental determinations are reported)

Row | Structure (SMILES) | IC50
1 | CC(C)(CNC(=O)c1ccc2c(c1)CC[C@@H]1[C@@H]2CC[C@]2(C)[C@@H](c3cncc(F)c3)CC[C@@H]12)C(=O)O [Example 5, 3-([[(17beta)-17-(5-fluoropyridin-3-yl)estra-1,3,5(10)-trien-3-yl]carbonyl}amino)-2,2-dimethylpropanoic acid] | 13.8 nM and 13.1 nM

same assay, conditions: 10 µM NADPH, 0.3 µM coumberone, 15 min preincubation, 90 min at 22°C, pH 7; 4-parameter fit; for some compounds two experimental determinations are given; read-out: AKR1C3 enzyme inhibition IC50

Row | Structure (SMILES) | IC50
2 | CN(CCC(=O)O)C(=O)c1ccc2c(c1)CC[C@@H]1[C@@H]2CC[C@]2(C)[C@@H](c3cncc(F)c3)CC[C@@H]12 [Example 1, N-{[(17beta)-17-(5-fluoropyridin-3-yl)estra-1,3,5(10)-trien-3-yl]carbonyl}-N-methyl-beta-alanine] | 19.2 nM and 23.7 nM
3 | C[C@]12CC[C@@H]3c4ccc(C(=O)NCC(=O)O)cc4CC[C@H]3[C@@H]1CC[C@@H]2c1cncc(F)c1 [Example 2, N-[[(17beta)-17-(5-fluoropyridin-3-yl)estra-1,3,5(10)-trien-3-yl]carbonyl}glycine] | 26.4 nM and 28.9 nM
4 | C[C@]12CC[C@@H]3c4ccc(C(=O)NCCC(=O)O)cc4CC[C@H]3[C@@H]1CC[C@@H]2c1cncc(F)c1 [Example 3, N-{[(17beta)-17-(5-fluoropyridin-3-yl)estra-1,3,5(10)-trien-3-yl]carbonyl}-beta-alanine] | 5.47 nM and 9.35 nM
5 | COc1cncc([C@H]2CC[C@H]3[C@@H]4CCc5cc(C(=O)N(C)CCC(=O)O)ccc5[C@H]4CC[C@]23C)c1 [Example 6, N-{[(17beta)-17-(5-methoxypyridin-3-yl)estra-1,3,5(10)-trien-3-yl]carbonyl}-N-methyl-beta-alanine] | 67.6 nM and 82.1 nM
6 | CN(CCC(=O)O)C(=O)c1ccc2c(c1)CC[C@@H]1[C@@H]2CC[C@]2(C)[C@@H](c3cncc(C(F)(F)F)c3)CC[C@@H]12 [Example 7, N-methyl-N-{[(17beta)-17-[5-(trifluoromethyl)pyridin-3-yl]estra-1,3,5(10)-trien-3-yl]carbonyl}-beta-alanine] | 35 nM and 44.1 nM
7 | CN(CC(=O)O)C(=O)c1ccc2c(c1)CC[C@@H]1[C@@H]2CC[C@]2(C)[C@@H](c3cncc(C(F)(F)F)c3)CC[C@@H]12 [Example 8, N-methyl-N-[[(17beta)-17-[5-(trifluoromethyl)pyridin-3-yl]estra-1,3,5(10)-trien-3-yl]carbonyl}glycine] | 48.5 nM and 76.2 nM
8 | C[C@]12CC[C@@H]3c4ccc(C(=O)NCCC(=O)O)cc4CC[C@H]3[C@@H]1CC[C@@H]2c1cncc(C(F)(F)F)c1 [Example 9, N-{[(17beta)-17-[5-(trifluoromethyl)pyridin-3-yl]estra-1,3,5(10)-trien-3-yl]carbonyl}-beta-alanine] | 16.9 nM and 26 nM
9 | CN(CCC(=O)O)C(=O)c1ccc2c(c1)CC[C@@H]1[C@@H]2CC[C@]2(C)[C@@H](c3cncnc3)CC[C@@H]12 [Example 10, N-methyl-N-{[(17beta)-17-(pyrimidin-5-yl)estra-1,3,5(10)-trien-3-yl]carbonyl}-beta-alanine] | 271 nM and 282 nM
10 | CN(CCC(=O)O)C(=O)c1ccc2c(c1)CC[C@H]1[C@@H]3[C@H](O)C[C@H](c4cncc(F)c4)[C@@]3(C)CC[C@H]21 [Example 11, N-{[(15beta,17beta)-17-(5-fluoropyridin-3-yl)-15-hydroxyestra-1,3,5(10)-trien-3-yl]carbonyl}-N-methyl-beta-alanine] | 22.4 nM
11 | CN(CCC(=O)O)C(=O)c1ccc2c(c1)CC[C@H]1[C@@H]3[C@@H](O)C[C@H](c4cncc(F)c4)[C@@]3(C)CC[C@H]21 [Example 12, N-{[(15alpha,17beta)-17-(5-fluoropyridin-3-yl)-15-hydroxyestra-1,3,5(10)-trien-3-yl]carbonyl}-N-methyl-beta-alanine] | 188 nM

same assay, conditions: read-out: AKR1C3 enzyme inhibition IC50; 10 µM NADPH, 0.3 µM coumberone, 15 min preincubation, 90 min at 22°C, pH 7; 4-parameter fit; for some compounds two experimental determinations are given

Row | Structure (SMILES) | IC50
12 | C[C@]12CC[C@@H]3c4ccc(C(=O)NCCCC(=O)O)cc4CC[C@H]3[C@@H]1CC[C@@H]2c1cncc(F)c1 [Example 4, 4-({[(17beta)-17-(5-fluoropyridin-3-yl)estra-1,3,5(10)-trien-3-yl]carbonyl}amino)butanoic acid] | 7.79 nM and 6.76 nM
